According to patent US10787643B2, “Methods, kits, and compositions for stem cell self-renewal” (Stowers Institute for Medical Research, priority 2007, dated 2020):

Tests used:
[1] = system: LSK Flk2− cells; experiment: Bone marrow MNC culture in HSC expansion media with CHIR99021 and PI3K inhibitor, FACS for LSK Flk2− expansion (FIG. 21); assay type: cell-based, mouse; conditions: for Expansion of LSK Flk2− cells: bone marrow MNCs cultured 10 days in ST media, 250 nM CHIR99021 or indicated concentrations of NVP-BEZ235
Protocol: Bone marrow MNCs were cultured for 10 days in an HSC expansion media with and without 250 nM CHIR99021, along with the indicated concentrations of PI3K inhibitor ([…]. et al. Identification and characterization of NVP-BEZ235, a new orally available dual phosphatidylinositol 3-kinase/mammalian target of rapamycin inhibitor with potent in vivo antitumor activity. (Molecular cancer therapeutics 7, 1851-1863 (2008)), and then subjected to FACS analysis to determine expansion of LSK Flk2^- cells. The inventors have developed a defined culture system utilizing only two cytokines, stem cell factor (SCF) and thrombopoietin (Tpo) (ST media), which have been shown previously to support HSC expansion in vitro (Zhang, […]. Murine hematopoietic stem cells change their surface phenotype during ex vivo expansion. Blood 105, 4314-4320 (2005)). […] Also, the ability of CHIR99021 to enhance expansion was negated by PI3K inhibition (FIG. 21).

[2] = system: LSK Flk2− cells; experiment: Ex vivo culture of sorted LSK Flk2− cells with PTEN and/or GSK-3β inhibitors; assay type: cell-based, mouse; conditions: for Expansion of LSK cells compared to control (photographs): 17 and 23 days culture, 1 μM CHIR99021, 200 nM BpV(pic); for Expansion of LSK Flk2− cells compared to media without either inhibitor: 28 days culture, inhibitor added individually
Protocol: LSK or LSK Flk2^− cells were sorted into 96-well U-bottom tissue culture plates at 100 cells/well with 200 μl media/well. Cells were incubated at 37° C., 5% O2, 5% CO2 (balance N2) for the indicated number of days. One-half total volume of media (see Table 1, below for the base media) was carefully pipetted from the top and replaced with fresh media every other day.
One hundred LSK Flk2^− cells were sorted from wild-type (C57Bl/6) mice and cultured in (1) media, (2) media+1 μM CHIR99021 (a GSK-3β inhibitor, a gift from Dr. Sheng Ding), (3) media+200 nM Dipotassium Bis-peroxo(picolinato)oxovanadate (BpV(pic), a PTEN inhibitor, available from Calbiochem, Cat. No. 203705), (4) media+1 μM CHIR99021+200 nM BpV(pic), (5) media+200 nM Shikonin (also a PTEN inhibitor, available from Calbiochem, Cat. No. 565850), and (6) media+200 nM Shikonin+1 μM CHIR99021. […] Cells were cultured as described above. […] Cells were examined at 17 days of culture (FIG. 3B, original magnification 100×) and 23 days (FIG. 3C, original magnification 40×).
LSK Flk2^− cells at 28 days culture in the indicated media conditions were examined (FIG. 3D, original magnification 200×).
FACS analysis of 28 day LSK Flk2^− cells cultured in media+BpV(pic)+CHIR99021 (FIG. 3E) was performed. Cells were pre-gated on live, lineage negative cells.
Fold expansion of LSK Flk2^− cells after 28 days culture in (1) media, (2) media+BpV(pic), (3) media+CHIR99021, and (4) media+CHIR99021+BpV(pic) were analyzed.
Cells cultured for 9 days in (1) media, (2) media+BpV(pic) (200 nM), (3) media+CHIR99021 (100 nM), and (4) media+CHIR99021 (100 nM)+BpV(pic) (200 nM) were re-sorted for LSK Flk2^− cells, and fold expansion of LSK Flk2^− cells after 9 days culture in the indicated conditions was determined (FIG. 3I).
FACS analysis was performed on 9 day LSK Flk2^− cells cultured in media+BpV(pic) (200 nM)+CHIR99021 (100 nM) (FIG. 3J). Cells were pre-gated on live, lineage negative cells.

[3] = system: LSK Flk2− cells; experiment: Transplantation of cultured sorted LSK Flk2− cells into lethally irradiated CD45.1+ recipient mice with competitor cells; assay type: in vivo, mouse; conditions: 1000 re-sorted LSK Flk2− cells from 28 day cultures; peripheral blood at 4 weeks post-transplant
Source text: Cells were harvested from the wells prior to transplantation by pipetting up and down several times before transferring to a fresh tube. Residual was then collected by adding more media and repeating. Cells were washed in DMEM (Invitrogen, Cat. No. 31053) without phenol red and added to the appropriate number of whole bone marrow rescue cells from a congenic donor (for 200,000 rescue cells+1,000 re-sorted LSK Flk2^− cells (FIGS. 3F-3H) or the non-adherent product of 10 days culture of 100 LSK Flk2^− cultured cells (FIGS. 3I-3K) per mouse as indicated). […]
Repopulation was measured at 4 weeks post-transplant by collection of periperal blood, red blood cell lysis, and staining of CD45.1 (recipient) compared to CD45.2 (donor) engraftment using antibodies purchased from eBiosciences (FITC conjugated CD45.2 (Cat. No. 11-0454-85) and PE-Cy5 conjugated CD45.1 (Cat. No. 15-0453-82)). […] Multi-lineage reconstitution was determined by CD3, B220 (for lymphoid) and Gr1, Mac-1 (for myeloid), as described above.
Cells cultured for 28 days in (1) media, (2) media+BpV(pic), (3) media+CHIR99021 and (4) media+CHIR99021 (1 μM)+BpV(pic) (200 nM) were re-sorted for LSK Flk2^− cells. […] At 4 weeks post-transplant, peripheral blood was analyzed for donor (FIG. 3G) and multi-lineage (FIG. 3H) engraftment. […]

[4] = system: LSK Flk2− cells; experiment: Competitive repopulation after 14 days ex vivo expansion of sorted HSCs or unsorted MNCs with or without CHIR99021; assay type: in vivo, mouse; conditions: long-term engraftment, competitor cells present
Protocol: For the experimental results shown in FIG. 13A, sorted LSK Flk2^− cells and unsorted MNCs containing a known quantity of LSK Flk2^− cells (CD45.2^+) were cultured for 14 days in ST media with and without CHIR99021. The cultured product of 100 sorted or 5 unsorted LSK Flk2^− cells per mouse were transplanted into lethally irradiated recipients (CD45.1^+). 5 freshly isolated, unsorted LSK Flk2^− cells per mouse were transplanted into a separate group. 1×10^5 freshly isolated CD45.1^+ competitor/radioprotective cells were also added per mouse. Peripheral blood analysis of recipients at 16 weeks post-transplant depicts % chimerism.
For the experiments set forth in this Example, a particular HSC expansion media was used. […]
Bone marrow cells were harvested from C57Bl/6 (CD45.2) mice and made into a single cell suspension by gently drawing through a 22 g needle several times. […] Cells were counted and a fraction of mononuclear cells (MNCs) were stained for lineage markers using CD3, CD4, CD8, B220, IgM, Mac-1, Gr1, and Ter119 antibodies along with Kit, Sca-1, and Flk2 for mouse HSC analysis or CD34 and CD38 for human HSC analysis. […] Frequency of putative HSCs (lineage negative, Sca-1^+, Kit^+, […] for mouse or CD34^+, CD38^− cells for human) was determined by analyzing >3×10^5 cells per sample independently in triplicate. […]

[5] = system: LSK Flk2− cells; experiment: Transplantation of ex vivo expanded MNCs without competitor/radioprotective cells, with serial (secondary) transplantation; assay type: in vivo, mouse
Protocol: For this experiment, MNCs with a known quantity of putative HSCs were cultured with and without CHIR99021 for 14 days. After 14 days, the cellular product of these cultures was transplanted into lethally-irradiated recipients at a dosage corresponding to an original input into culture of MNCs containing 5 LSKF^− cells per mouse. Freshly isolated MNCs containing either 5 or 500 LSKF− cells were also transplanted into 2 additional lethally irradiated groups of mice. No rescue/competitor bone marrow cells were included.
At 16 weeks post-transplant, mice transplanted with MNCs containing 5 or 500 LSKF^− cells freshly isolated or cultured for 14 days described in FIGS. 6A-6D were sacrificed and bone marrow isolated. A secondary transplantation was performed on new groups of lethally irradiated mice by transplanting 1×10^6 bone marrow cells from the original transplant group per mouse. At 4 weeks post-transplant, peripheral blood was collected from each transplant recipient and donor-derived repopulation was determined.

Compound	Ability of CHIR99021 to enhance expansion of LSK Flk2− cells ([1]; PI3K inhibitor added together with 250 nM CHIR99021, 10 days)	Expansion of LSK Flk2− cells [1]	Expansion of LSK cells compared to control (photographs) [2]	Expansion of LSK Flk2− cells compared to media without either inhibitor [2]	Mice showing >1% engraftment [3]	Average repopulation ([4]; 100 sorted putative HSCs cultured 14 days with CHIR99021 (250 nM))	Average repopulation ([4]; unsorted MNC cultures, 14 days with CHIR99021 (250 nM))	Donor reconstitution ([5]; 16 weeks post-secondary transplant, MNCs containing 5 LSK Flk2− cells expanded 14 days in ST media with CHIR99021, no competitor cells)	Long-term repopulation equivalent to a greater dose of fresh, unexpanded cells ([5]; 16 weeks post-secondary transplantation, expanded MNCs with 5 putative HSCs vs fresh MNCs with 500)
Cn1c(=O)n(-c2ccc(C(C)(C)C#N)cc2)c2c3cc(-c4cnc5ccccc5c4)ccc3ncc21 [NVP-BEZ235]	negated	decreased the ability of LSK Flk2^− cells to expand in a dose-dependent manner	–	–	–	–	–	–	–
Dipotassium Bis-peroxo(picolinato)oxovanadate [BpV(pic)]	–	–	greater expansion	significant expansion	0/10	–	–	–	–
Cc1c[nH]c(-c2cnc(NCCNc3ccc(C#N)cn3)nc2-c2ccc(Cl)cc2Cl)n1 [CHIR99021]	–	increased the expansion	greater expansion	significant expansion	4/8	12.3%	64.8%	90.6±4.8%	100 fold
